Patent publication US7550425B2, “Diuretic peptide conjugates” (Zealand Pharma A/S, priority 2000, dated 2009)
Where two headings read alike, the source gives them in different places.

Key:
[1] = test system: conscious Sprague Dawley rats; type: in vivo, rat; as to Behavioral changes: key: 0 indicates a lack of response; (↓) indicates a very weak decrease; ↓ indicates a weak decrease; ↑ indicates a weak increase; ↑↑ indicates a strong increase; as to Food intake: key: 0 indicates a lack of response; (↓) indicates a very weak decrease; ↓ indicates a weak decrease; ↑ indicates a weak increase; ↑↑ indicates a strong increase; as to UNaV: key: 0 indicates a lack of response; (↓) indicates a very weak decrease; ↓ indicates a weak decrease; ↑ indicates a weak increase; ↑↑ indicates a strong increase
Description: In the conscious rat model, the animal is chronically instrumented with catheters in the urinary bladder, the femoral artery, and the femoral vein. The animal receives a continuous i.v. infusion with isotonic saline, 50 μl/min. Urine is collected in vials in consequtive urine collection periods of 10 min each. After two control periods, the test compound is administered and fractionated urine collections (10 min periods) are continued for at least two hours. Urinary concentrations of sodium and potassium are determined by flame photometry (Instrumentation Laboratory 943) using caesium as internal standard.
The diuretic effect of the peptide conjugates of the invention has been tested in conscious rats, where Compound 1 elicits a powerful and sustained diuretic response. Cardiovascular and renal responses produced by i.v. infusion of nociceptin (Phoenix Pharmaceuticals) and Compound 1 have been studied in conscious Sprague Dawley rats. The results are shown in FIGS. 2 to 8 wherein HR is heart rate, MAP is mean arterial pressure, V is urine flow rate, UNaV is urinary excretion rate of sodium, RSNA is renal sympathetic nerve activity expressed as % of the control level, Cosm is the osmolar clearance, and CH2O is free water clearance.
Furthermore, the effects of i.v. bolus administration of nociceptin (30 and 100 nmol/kg, Phoenix Pharmaceuticals) and nociceptin-NH2 (30 nmol/kg) on heart rate, arterial pressure and RSNA were studied in groups of 6 conscious Sprague-Dawley rats.
[…] After stabilization of urine flow rate and urinary sodium excretion, urine was collected during a 20-min control period. After this, the i.v. bolus injection was given or the i.v. infusate was switched to a solution of isotonic saline containing Compound 1 (i.v. infusion experiments). From the time of drug administration, experimental urine samples (10-min consecutive periods) were taken for 80 min.
One hour prior to the start of each experiment a food pellet (standard rodent chow) was placed within access to the rat though a hole in the rat holder. The number and time of feeding responses (i.e., times in which the rat began to eat the food pellet) was recorded before, and after drug administration. If a positive feeding response was observed, the pellet was removed from the restrainer to prevent feeding-induced alterations in heart rate and/or mean arterial pressure. At 10-min intervals, the food pellet was presented to the rat to determine the duration of the feeding response.

[2] = test system: mouse vas deferens; experiment: Mouse vas deferens assay: inhibition of electrically-induced contraction; conditions: cumulative addition; data not shown
Description: The compounds of the present invention are pharmacologically active, e.g. as nociceptin agonists or partial agonists, and a useful method of showing activity is described by Hughes J., Kosterlitz H. W., Leslie F. M.: Effect of morphine on adrenergic transmission in the mouse vas deferens. Assessment of agonist and antagonist potencies of narcotic analgesics^[4]. The isolated electrically stimulated mouse vas deferens preparation has been widely used to evaluate the functional pharmacological actions of opioid agonists and antagonists in vitro^[5].
The vas deferens from male NMRI albino mice weighing 30-40 g were placed in a SCHULER organ bath Type 809, Hugo Sachs Elektronik, Germany, and perfused with a 37° C., modified Krebs solution (NaCl 6,9 g/L, KCl 0.35 g/L, KH2PO4 0.16 g/L, NaHCO3 2.1 g/L, Glucose H2O 2.0 g/L, CaCl2 2.52 mL/L). The solution was gassed with carbogen (95% O2 and 5% CO2) throughout the experiment. The tissue was electrically stimulated through two silver electrodes directly in the organ bath using a HSE Stimulator I Type 215. Stimulation of the tissue was performed by applying a supramaximal voltage (15 Volts) in trains of 10 square pulses every 60 s, each of 1 ms duration with a frequency of […]. Concentration-response curves were performed by adding test substances that relax mouse vas deferens smooth muscles cumulatively to the organ baths. The test substances used in the assay were nociceptin in an isotonic saline solution, Compound 1 (as the trifluoroacetate in an isotonic saline solution), Compound 2 (as the trifluoroacetate in an isotonic saline solution), and the hexapeptide Ac-RYYRWK-NH2 (SEQ ID NO: 1) (as the trifluoroacetate in an isotonic saline solution).

[3] = I.v. bolus injection 30 nmol/kg
[4] = I.v. infusion 0.1 nmol/kg/min (n = 6)
[5] = I.v. infusion 1.0 nmol/kg/min (n = 6)
[6] = I.v. infusion 10 nmol/kg/min (n = 6)
[7] = i.v. infusion 1 and 0.1 nmol/kg/min, FIG. 3

Ac-RYYRWKKKKKKK-NH2 [Compound 1, Ac-RYYRWKKKKKKK-NH2]
Δ Blood Pressure (%) ([1]; I.v. bolus 10 nmol/kg (n = 6)): −4 ± 1%
Δ K excretion (%) ([1]; I.v. bolus 10 nmol/kg (n = 6)): −35 ± 4%
Δ Na excretion (%) ([1]; I.v. bolus 10 nmol/kg (n = 6)): −44 ± 3%
Δ Urine Flow (%) ([1]; I.v. bolus 10 nmol/kg (n = 6)): +83 ± 42%
Δ Blood Pressure (%) ([1]; I.v. bolus 30 nmol/kg (n = 4)): −8 ± 2%
Δ K excretion (%) ([1]; I.v. bolus 30 nmol/kg (n = 4)): −20 ± 7%
Δ Na excretion (%) ([1]; I.v. bolus 30 nmol/kg (n = 4)): −51 ± 7%
Δ Urine Flow (%) ([1]; I.v. bolus 30 nmol/kg (n = 4)): +207 ± 11%
Δ Blood Pressure (%) ([1]; I.v. bolus 100 nmol/kg (n = 6)): −12 ± 2%
Δ K excretion (%) ([1]; I.v. bolus 100 nmol/kg (n = 6)): −52 ± 5%
Δ Na excretion (%) ([1]; I.v. bolus 100 nmol/kg (n = 6)): −70 ± 2%
Δ Urine Flow (%) ([1]; I.v. bolus 100 nmol/kg (n = 6)): +249 ± 60%
Δ Blood Pressure (%) ([1]; I.v. bolus 300 nmol/kg (n = 4)): −15 ± 3%
Δ K excretion (%) ([1]; I.v. bolus 300 nmol/kg (n = 4)): −79 ± 6%
Δ Na excretion (%) ([1]; I.v. bolus 300 nmol/kg (n = 4)): −85 ± 6%
Δ Urine Flow (%) ([1]; I.v. bolus 300 nmol/kg (n = 4)): +127 ± 47%
Behavioral changes [1, 3]: 0
Food intake [1, 3]: 0
HR [1, 3]: 0
MAP [1, 3]: 0
Behavioral changes ([1]; I.v. infusion 0.1 nmol/kg/min): 0
Food intake ([1]; I.v. infusion 0.1 nmol/kg/min): 0
HR ([1]; I.v. infusion 0.1 nmol/kg/min): 0
UNaV ([1]; I.v. infusion 0.1 nmol/kg/min): 0
Δ Blood Pressure (%) [1, 4]: −5 ± 4%
Δ K excretion (%) [1, 4]: −16 ± 6%
Δ Na excretion (%) [1, 4]: −5 ± 3%
Δ Urine Flow (%) [1, 4]: +99 ± 21%
Behavioral changes ([1]; I.v. infusion 1.0 nmol/kg/min): 0
Food intake ([1]; I.v. infusion 1.0 nmol/kg/min): 0
HR ([1]; I.v. infusion 1.0 nmol/kg/min): 0
Δ Blood Pressure (%) [1, 5]: −10 ± 2%
Δ K excretion (%) [1, 5]: −51 ± 9%
Δ Na excretion (%) [1, 5]: −64 ± 7%
Δ Urine Flow (%) [1, 5]: 210 ± 51%
Δ Blood Pressure (%) [1, 6]: −15 ± 3%
Δ K excretion (%) [1, 6]: −68 ± 15%
Δ Na excretion (%) [1, 6]: −79 ± 6%
Δ Urine Flow (%) [1, 6]: 160 ± 68%
bradycardia and hypotension to an i.v. bolus injection of nociceptin ([1]; after 120 min of i.v. infusion 1 nmol/kg/min, n=6): completely blocked
water diuretic response ([1]; continuous i.v. infusion 1 and 10 nmol/kg/min): selective water diuretic response
heart rate, arterial pressure and RSNA ([1]; i.v. bolus 30 nmol/kg): did not produce any changes in heart rate, blood pressure or RSNA
stimulation of appetite or behavioral changes ([1]; i.v. bolus 30 nmol/kg): do not show any signs of stimulation of appetite or behavioral changes
diuretic (V) and antinatriuretic (UNaV) response ([1]; i.v. bolus 30 nmol/kg, data not shown): marked diuretic (V) and antinatriuretic (UNaV) response
appetite, sedation, behavioral changes ([1]; i.v. infusion 1 and 0.1 nmol/kg/min): no signs of increased appetite, sedation, or behavioral changes
HR response [1, 7]: little effect on HR
MAP response [1, 7]: slight, but significant reduction in MAP
diuretic (V) and antinatriuretic (UNaV) responses [1, 7]: significant diuretic (V μl/min) and antinatriuretic responses
fold more potent than nociceptin in producing similar magnitude diuretic and antinatriuretic responses ([1]; i.v. infusion, FIGS. 5 and 6): approximately 10 fold
duration of the diuretic effect ([1]; i.v. infusion, compared with nociceptin): tended to persist for a greater duration than that of i.v. nociceptin infusion
potency order for inhibition of electrically-induced contraction of the mouse vas deferens [2]: nociceptin>Compound 1=Compound 2>>Ac-RYYRWK-NH2
